From ChEMBL document CHEMBL4673179 (RSC Med Chem, 2020) come the findings set out here.

Data set [1] relates to MDA-MB-231. Nature of the data set: Cytotoxicity against human MDA-MB-231 cells incubated for 30 mins by CellTiter-Glo luminescent Cell viability assay. It is filed as functional, cell-based. Conditions: MDA-MB-231, 0.5 h.
The subject of data set [2] is MCF7. As to the kind of experiment: Antitumor activity against human MCF7 cells xenografted in BALB/c nude mouse assessed as tumor growth inhibition at 200 mg/kg, ip administered every other day for 2 weeks relative to control. Format: functional. The note with it: 336 h, read-out: TGI.
The test system of data set [3] is MCF7. As to the kind of experiment: Cytotoxicity against human MCF7 cells incubated for 72 hrs by SRB assay. It is filed as functional, cell-based. Conditions: MCF7, 72 h.
Data set [4] has as its system MCF7. Nature of the data set: Synergistic antitumor activity against human MCF7 cells xenografted in BALB/c nude mouse assessed as tumor growth inhibition at 50 mg/kg, ip administered once per week for 2 weeks in presence of AICA riboside relative to control. Conditions: 336 h, read-out: TGI. It is filed as functional.
A short description of data set [5]: Drug metabolism in human assessed as carboxypeptidase-G2 (unknown origin)- mediated drug conversion to DAMPA and glutamate. Format: ADME.
A short description of data set [6]: Oral bioavailability in pediatric patient at <= 40 mg/m2. It is filed as ADME, organism-based. Conditions: human, in vivo.
The test system of data set [7] is MDA-MB-231. As to the kind of experiment: Synergistic antiproliferative activity against human MDA-MB-231 cells assessed as cell survival rate at 10 uM incubated for 72 hrs in presence of alpha-tocopherol measured every 24 hrs by MTT assay relative to control. It is filed as functional. Conditions: read-out: Survival.
Data set [8] is described as follows: Oral bioavailability in pediatric patient at > 40 mg/m2. Format: ADME, organism-based. Conditions: human, in vivo.
The test system of data set [9] is MCF7. As to the kind of experiment: Antiproliferative activity against human MCF7 assessed as reduction in cell number at 10 uM measured after 6 days in presence of 100 uM AICAR by sulforhodamine B assay relative to control. Format: functional. On the set-up: scale not given: the % may be the effect or the level left. Conditions: time 6 day.
The nature of data set [10]: Drug excretion in patient bile at 10 mg/m2, po by HPLC method. It is filed as ADME, organism-based. Conditions: human, read-out: Drug excretion.
A short description of data set [11]: Aqueous solubility of compound. It is filed as physicochemical. Conditions: aqueous medium.
The nature of data set [12]: Half life in plasma (unknown origin). It is filed as ADME, cell-free.
The test system of data set [13] is MDA-MB-231. Nature of the data set: Synergistic antiproliferative activity against human MDA-MB-231 cells assessed as cell survival rate at 0.1 uM incubated for 72 hrs in presence of alpha-tocopherol measured every 24 hrs by MTT assay relative to control. Format: functional. Conditions: read-out: Survival.
A short description of data set [14]: Blood brain barrier permeability in iv dosed human. It is filed as ADME, organism-based.
For data set [15], the system named is MCF7. Nature of the data set: Antineoplastic activity against human MCF7 cells incubated for 72 hrs by prestoblue reduction assay. Format: functional, cell-based. Conditions: MCF7, 72 h.
The next data set addresses Albumin (Homo sapiens, UniProt P02768). As to the kind of experiment: Binding affinity to human serum albumin by Scatchard plot. It is filed as ADME, cell-free.
Data set [16] concerns MCF7. As to the kind of experiment: Antitumor activity against human MCF7 cells xenografted in BALB/c nude mouse assessed as tumor growth inhibition at 50 mg/kg, ip administered once per week for 2 weeks relative to control. It is filed as functional. The note with it: 336 h, read-out: TGI.

SMILES strings stand for the structures. ≈ marks a conversion by molar mass, not a printed value. *1 amine or outer side, *2 acyl side, *3 side chain or, on linkers, in order; H or OH if unused. Where a SMILES comes first, the peptide text is derived from it. The star is where a group is joined. ξ: configuration not given here. DAMPA = CN(Cc1cnc2nc(N)nc(N)c2n1)c1ccc(C(=O)*)cc1; ξγGlu = O=C(O)C(CCC(=O)[*:2])N[*:1]

Chain of Albumin (P02768 whole entry): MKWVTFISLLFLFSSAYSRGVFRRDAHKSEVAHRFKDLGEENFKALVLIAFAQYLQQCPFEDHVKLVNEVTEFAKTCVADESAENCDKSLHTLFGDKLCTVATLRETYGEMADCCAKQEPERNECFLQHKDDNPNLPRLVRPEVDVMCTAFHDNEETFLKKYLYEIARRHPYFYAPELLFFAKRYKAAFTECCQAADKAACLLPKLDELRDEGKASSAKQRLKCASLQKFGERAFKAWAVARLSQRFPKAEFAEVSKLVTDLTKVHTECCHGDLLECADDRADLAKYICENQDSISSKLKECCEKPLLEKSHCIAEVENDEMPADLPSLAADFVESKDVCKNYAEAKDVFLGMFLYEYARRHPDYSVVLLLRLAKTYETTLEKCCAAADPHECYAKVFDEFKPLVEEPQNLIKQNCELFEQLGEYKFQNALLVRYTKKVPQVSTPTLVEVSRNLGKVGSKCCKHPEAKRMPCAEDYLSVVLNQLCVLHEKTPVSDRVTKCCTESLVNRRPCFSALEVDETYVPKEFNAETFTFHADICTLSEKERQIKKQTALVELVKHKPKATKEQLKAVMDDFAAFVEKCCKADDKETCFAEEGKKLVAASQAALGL

In the case of `CC[C@H](C)[C@H](NC(=O)[C@H](C)NC(=O)[C@@H](NC(=O)[C@H](Cc1ccc(O)cc1)NC(=O)CNC(=O)CCC(NC(=O)c1ccc(N(C)Cc2cnc3nc(N)nc(N)c3n2)cc1)C(=O)O)[C@@H](C)O)C(=O)N[C@@H](C)C(=O)N[C@@H](Cc1c[nH]c2ccccc12)C(=O)N[C@H](C(=O)N[C@@H](CCCCN)C(=O)N[C@@H](C)C(=O)N[C@@H](Cc1ccccc1)C(=O)N[C@H](C(=O)N[C@@H](CCCNC(=N)N)C(=O)N[C@@H](CCCCN)C(=O)N[C@@H](CC(C)C)C(=O)N[C@@H](CCCNC(=N)N)C(=O)N[C@@H](CCCCN)C(N)=O)[C@@H](C)CC)C(C)C` (stereo partly drawn) ({DAMPA-ξγGlu}-GYTAIAWVKAFIRKLRK-NH2), the concentration for a half-maximal effect (EC50) in the data set on MDA-MB-231 [1] was 3.8 µM.
For `NC(=O)c1ncn([C@@H]2O[C@H](CO)[C@@H](O)[C@H]2O)c1N` [ACADESINE], the inhibition in vivo at 200 mg/kg in the data set with MCF7 [2] amounted to 42.2%.
Regarding `COc1cccc2c1C(=O)c1c(O)c3c(c(O)c1C2=O)C[C@@](O)(C(=O)CO)C[C@@H]3O[C@H]1C[C@H](N)[C@@H](O)[C@H](C)O1` [EPIRUBICIN], in the data set with MCF7 [3], the IC50 came to 0.55 µM.
For `CN(Cc1cnc2nc(N)nc(N)c2n1)c1ccc(C(=O)N[C@@H](CCC(=O)O)C(=O)O)cc1` [METHOTREXATE], the IC50 in the data set on MCF7 [3] is greater than 22 µM; in the data set with MCF7 [15], 0.015 µM. Besides, the inhibition in vivo at 50 mg/kg with MCF7 [4] turned out to be 79.9%; in the data set with MCF7 [16], 55%. The Drug metabolism in data set [5] is greater than 98%. For the same compound, the bioavailability in data set [6] came to 42%; in [8], 18%. Further, the viability at 10 µM in the data set on MDA-MB-231 [7] was 35%. Further, in the data set with MCF7 [9], the Activity was 50%. Further, the dose excreted in [10] came to 8.7%. This compound gave a solubility in data set [11] of 0.01 mg/mL (≈ 22 µM). Further, the half-life in [12] was 2 h. In the data set on MDA-MB-231 [13], the viability at 0.1 µM is greater than 60%. The compound further returned a pBBB in [14] of 1.7%. The compound further registered a K at Albumin of 820 M⁻¹.
